Reference: US10609926B2, “Synergistic herbicidal composition” (JIANGSU ROTAM CHEMISTRY CO., LTD, priority 2016, dated 2020)

Test system: gramineous weeds, broadleaf weeds and sedge weeds
Test: Post-emergence weed control efficacy test (potted plants, stem and leaf treatment; Colby evaluation)
Assay type: in vivo
Excerpt: The desired efficacy of the combination of three active compounds can be calculated through “Colby formula” as follows (S. R. Colby, “Calculating Synergistic and Antagonistic Responses of Herbicide Combinations, Weeds 1967, 15, 20-22): if
E0 is the anticipated activity of active compounds A, B and C when used in an amount of m, n, h g/ha or concentrate of m, n, h ppm, E0=A×B×C/(100^(N-1))
If the observed actual activity E is greater than the anticipated activity (E0), then the composition has synergistic effect.
If the observed actual efficiency of weed control (E) through the biology test is greater than the anticipated value (E0) as calculated via Colby's equation, then it represents that the efficacy of herbicidal composition is greater than the sum of efficacy of each component, which means the composition has synergistic effect.
Use stem and leaf treatment for potted grown plant(NY/T 1155.4-2006): fill a plastic pot (6 cm height, 9 cm diameter) with a quantity of soil and sow 15 to 20 seeds of monocotyledonous weeds and dicotyledonous weeds in the plastic pot, cover it with 0.5 to 1 cm thick of fine soil and then put it in greenhouse for cultivation. When weeds grow to the 2 to 4 leave stage, conduct the stem and leaf spray treatment with 1 mL herbicidal solution on each pot and repeat four times for each treatment and leave some pots untreated as control group. Keep the treated pots in a greenhouse for cultivation and observe the growing status of target weeds periodically. Conduct the visual test on the target weeds regarding the damage symptoms and growth inhibition effect after 21 days. Weigh up the fresh weight above the ground or plant fresh weight and evaluate the toxicity of the herbicidal formulation on target weeds based on the fresh weight inhibition rate of the target.
Prepare the following formulations according to specific weight percentages: 1. Pyroxasulfone; 2. Topramezone; 3 Atrazine; 4. Pyroxasulfone+Topramezone; 5. Pyroxasulfone+Atrazine; 6. Topramezone+Atrazine; 7. Pyroxasulfone+Topramezone+Atrazine. After that, dilute above formulations with water to obtain diluted formulations.
Conduct visual assessment the damage symptom and growth inhibition status of target weeds after 21 days. Weigh up the fresh weight above the ground and calculate the inhibition rate of fresh weight (%).
Anticipated effects of the special combined three active components can be calculated through so called “Colby formula”. If the actual efficiency of weed control observed during the biology test exceeds the anticipated value […] calculated by Colby's formula, then it represents that the efficacy of herbicidal composition is greater than the sum of efficacy of each component, which means the composition has synergistic effect.
The synergistic herbicidal composition of present invention has conducted test on the following important harmful plants (gramineous weeds, broadleaf weeds, sedge weeds) with wide herbicidal spectrum: Echinochloa oryzicola, Digitaria spp., Stellaria media, Amaranthus retroflexus, Fallopia (ex Polygonum) Convolvulus, Abuthilon theophrasti, Sagittariatrifolia, Oriental Waterplantain Rhizome, Herb of Pygmy Arrowhead, Monochoria korsakowii, Lindernia procumbens, Solanum nigrum L., Scirpus juncoides Roxb, Cyperus difformis L., Chenopodium alum L., Avena fatua L. and Galium aparine L. var. tenerum Gren. et (Godr.) Rebb.

SMILES | Actual survival rate (application rate 1 g/ha) | Actual survival rate (application rate 50 g/ha) | Actual survival rate (application rate 100 g/ha) | Actual survival rate (application rate 25 g/ha) | Actual survival rate (application rate 5 g/ha) | Actual survival rate (application rate 10 g/ha)
CCNc1nc(Cl)nc(NC(C)C)n1 [Atrazine, 2-chloro-4-ethylamino-6-isopropylamino-1,3,5-triazine] | 100% | 100% | 67% | – | – | –
Cc1c(C(=O)c2cnn(C)c2O)ccc(S(C)(=O)=O)c1C1=NOCC1 [Topramezone, [3-(4,5-dihydro-3-isoxazolyl)-2-methyl-4-(methylsulfonyl)phenyl](5-hydroxy-1-methyl-1H-pyrazol-4-yl)methanone] | 87.8% | 12.8% | – | 24.5% | – | –
Cn1nc(C(F)(F)F)c(CS(=O)(=O)C2=NOC(C)(C)C2)c1OC(F)F [Pyroxasulfone, 3-[5-(difluoromethoxy)-1-methyl-3-(trifluoromethyl)pyrazol-4-ylmethylsulfonyl]-4,5-dihydro-5,5-dimthyl-1,2-oxazole] | 89% | – | – | – | 78% | 60%
